Measurements: patent US9475759B2, “Tigecycline crystalline hydrate and preparation method therefor and use thereof” (priority 2011, dated 2016)

experiment: Test for hygroscopicity (hygroscopic weight gain); format: physicochemical; conditions: 25° C., relative humidity about 70%, about 5 g sample, sampling time 12 hours
Description: The tigecycline crystalline hydrates according to the invention can be stable for storage. A hygroscopicity test is conducted directed to a tigecycline hydrate sample and a tigecycline anhydride sample: about 5 g of the tigecycline anhydride and 5 g of the hydrate of the invention are taken, and they are placed in a dry and weight-constant surface vessel and precisely weighted. […] On the conditions of RH 75% and 30° C., the tigecycline crystalline hydrate is sealed in a vial for conducting a six-month acceleration stability test. According to the testing conditions of HPLC process of the tigecycline in relevant literatures: C18 (250 mm×4.6 mm, 5 μm) acetonitrile:phosphate buffer (1.29 g of citric acid and 2.76 g of anhydrous disodium hydrogen phosphate are dissolved in water and diluted to 1000 ml) (80:20) as the mobile phase; detection wavelength is 248 nm; the column temperature is room temperature; and the flowing rate is 1 ml/min. Under the conditions, the tigecycline contents and related substances are determined.
The tigecycline hydrates of the present invention may be stable for storage. Samples of tigecycline hydrates and anhydrides and amorphous tigecycline are used to conduct the test for hygroscopicity: respectively, about 5 g tigecycline anhydrides (obtained by drying tigecycline.0.5H2O hydrate prepared according to Example 1), about 5 g amorphous tigecycline (prepared by referring to the process as described in the reference document CN101367747A) and about 5 g the hydrates of the present invention are placed in a dry and constant weight watch glass, and the system is precisely weighed.

In order of rising “As compared to the sample time of 0 h, weight gains %” value:
1. CN(C)c1cc(NC(=O)CNC(C)(C)C)c(O)c2c1CC1CC3C(N(C)C)C(O)=C(C(N)=O)C(=O)C3(O)C(O)=C1C2=O.O.O (stereo not shown) [Tigecycline•2 H2O hydrate, Tigecycline.2H2O Hydrate]  0.1%
2. CN(C)c1cc(NC(=O)CNC(C)(C)C)c(O)c2c1C[C@H]1C[C@H]3[C@H](N(C)C)C(O)=C(C(N)=O)C(=O)[C@@]3(O)C(O)=C1C2=O.CN(C)c1cc(NC(=O)CNC(C)(C)C)c(O)c2c1C[C@H]1C[C@H]3[C@H](N(C)C)C(O)=C(C(N)=O)C(=O)[C@@]3(O)C(O)=C1C2=O.O [Tigecycline•0.5 H2O hydrate, Tigecycline.0.5H2O Hydrate]  0.2%
3. CN(C)c1cc(NC(=O)CNC(C)(C)C)c(O)c2c1C[C@H]1C[C@H]3[C@H](N(C)C)C(O)=C(C(N)=O)C(=O)[C@@]3(O)C(O)=C1C2=O [Amorphous tigecyline, tigecycline]  1.3%
4. CN(C)c1cc(NC(=O)CNC(C)(C)C)c(O)c2c1C[C@H]1C[C@H]3[C@H](N(C)C)C(O)=C(C(N)=O)C(=O)[C@@]3(O)C(O)=C1C2=O [Tigecycline anhydride]  1.4%
